{
  "source": "patent US11266715B2",
  "about": "“C3A receptor agonists for use against ischemic brain injury, stroke, traumatic brain injury, spinal cord injury and neurodegenerative disorders” (priority 2016, dated 2022)",
  "key": {"microglia and astrocytes": {"tested_on": "microglia and astrocytes", "conditions": "in vitro; cited from earlier work"}, "[1]": {"tested_on": "mice subjected to neonatal HI injury", "assay": "Open field after neonatal HI injury", "format": "in vivo, mouse", "conditions": "P50, 3 days treatment", "method": "In the short-term study (3 days of intranasal treatment), 3 groups of WT mice were used; animals subjected to neonatal HI injury and treated with either C3a (HI-C3a, n=18) or PBS (HI-PBS, n=18) and sham-operated animals treated with PBS (SHAM-PBS, n=19). These mice were tested in an open field and object recognition test (ORT) at P50-P54 and brains were collected at P55 (FIG. 8A).\nPurified human C3a (Complement Technology Inc., Tyler, Tex., USA) was diluted in sterile phosphate buffered saline (PBS) to a concentration of 200 nM, and a total of 8 μl i.e. […] (4 μl/nostril; corresponding to ca. 2.56 μg/kg body weight) of peptide solution or PBS was given intranasally to awake and hand-restrained mice held in a supine position. Solutions were administered through a pipette tip, drop-wise in 2 μl-portions divided by 1 min intervals to allow for absorption. […] C3a or PBS was given every 24 hours for three (short-term study) or seven (long-term study) days starting 1 h after HI induction, i.e. between P9 and P11 or P9 and P15, respectively. Mice in each litter were randomly assigned to C3a or PBS treatment. Sham animals received PBS. […]\nThe activity of each animal on the first day of habituation to the object recognition test apparatus was recorded as an open field task to study locomotor and exploratory activities (Leke et al., 2012). […]"}, "[2]": {"tested_on": "mice subjected to neonatal HI injury", "assay": "Histomorphologic evaluation of hippocampus volume after neonatal HI", "format": "in vivo, mouse", "conditions": "WT or C3aR−/− mice, regardless of treatment length, P51-55", "method": "On P51 (long-term study) or P55 (short-term study), mice were deeply anesthetized with thiopental [Pentothal Sodium (0.01 ml/g body weight), Hospira, Ill., USA)] and transcardially perfused with 0.9% saline, followed by 4% paraformaldehyde (PFA) in 0.1 M PBS. Brains were removed and post-fixed in 4% PFA at 4° C. for 24 h followed by 70% ethanol for 24 h. Tissue was processed using an automatic tissue processor (SAKURA Tissue Tek VIP 3000, Tournai, Belgium) and embedded in paraffin. Brains were cut at room temperature into 8-μm serial coronal sections using a sliding microtome (Microm HM 450, Thermo Scientific, Massachusetts, USA), attached to silane coated slides and dried at RT.\nFor the histomorphologic evaluation, slides were incubated for 1 h at 65° C. and stained with haematoxylin and eosin. A wide-field microscope (Nikon Eclipse 80i; Nikon Instruments Inc., Tokyo, Japan) equipped with a color camera (Nikon DXM 1200F) was used to obtain images of brain sections 208 μm apart between −1.60 mm and −2.02 mm relative to Bregma; 3 sections/mouse. ImageJ 1.46r software was used to trace around the ipsilesional and contralesional hippocampus and hemisphere. Volumes were calculated according to the Cavalieri's principle, where V=ΣA×P×T (Svedin et al., 2007) and hippocampus volume/hemisphere volume ratio was calculated for each hemisphere."}},
  "data": [
    {"substance": "C3a: Purified human C3a peptide (Complement Technologies), C3a receptor agonist, amino acid sequence SEQ ID NO: 1", "values": [
      {"measurement": "NGF expression", "setting": "microglia and astrocytes", "result": "induces upregulation of neural growth factor (NGF)"},
      {"measurement": "anxiety-like behavior (centre distance and time, rearing, grooming)", "setting": "[1]", "result": "anxiety-like behavior was not induced"},
      {"measurement": "general exploratory and locomotor activities (speed, activity, locomotion time, distance)", "setting": "[1]", "result": "did not affect general exploratory and locomotor activities"},
      {"measurement": "HI-induced loss of hippocampal tissue", "setting": "[2]", "result": "did not affect HI-induced loss of hippocampal tissue"}
    ]}
  ]
}
